Data taken from ChEMBL document CHEMBL1127437, “Novel benzisoxazole derivatives as potent and selective inhibitors of acetylcholinesterase” (J Med Chem, 1994).

How the values were obtained:
[1] = target: Acetylcholinesterase (Homo sapiens, UniProt P22303)
Description: Evaluated for the in vitro inhibition of the Acetylcholinesterase (AChE) from human erythrocytes

[2] = target: Butyrylcholinesterase (Equus caballus, UniProt Q9N1N9)
Description: Compound was evaluated for the in vitro inhibition of the Butyrylcholinesterase from horse serum

[3] = test system: Mus musculus; assay: Tested for effective dose for […] by peroral administration in vivo in mouse; type: functional; conditions: po
[4] = test system: Mus musculus; assay: In vivo activity was determined by measuring […] in mouse forebrain.; type: functional
[5] = species: Mus musculus; assay: animal or person
Description: Tested for effective dose for elevation of Acetylcholinesterase (AChE) in mouse forebrain

Acetylcholinesterase, sequence (P22303 whole entry): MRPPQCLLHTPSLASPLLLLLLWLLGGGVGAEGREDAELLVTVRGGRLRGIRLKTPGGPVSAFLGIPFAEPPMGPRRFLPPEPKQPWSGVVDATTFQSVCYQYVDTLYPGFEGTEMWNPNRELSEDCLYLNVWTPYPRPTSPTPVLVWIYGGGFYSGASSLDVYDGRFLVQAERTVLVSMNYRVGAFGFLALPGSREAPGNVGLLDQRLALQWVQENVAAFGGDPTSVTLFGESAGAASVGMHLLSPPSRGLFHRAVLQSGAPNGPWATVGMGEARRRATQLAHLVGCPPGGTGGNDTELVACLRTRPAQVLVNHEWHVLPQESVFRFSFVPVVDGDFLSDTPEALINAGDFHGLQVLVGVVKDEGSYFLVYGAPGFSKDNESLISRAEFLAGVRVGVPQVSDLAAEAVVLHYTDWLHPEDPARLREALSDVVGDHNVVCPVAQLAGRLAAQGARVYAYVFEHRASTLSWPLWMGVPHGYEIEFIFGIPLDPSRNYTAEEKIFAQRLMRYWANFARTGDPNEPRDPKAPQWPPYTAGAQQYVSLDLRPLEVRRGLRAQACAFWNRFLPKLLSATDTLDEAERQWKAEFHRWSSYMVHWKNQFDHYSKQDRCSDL
Butyrylcholinesterase, sequence (Q9N1N9 whole entry): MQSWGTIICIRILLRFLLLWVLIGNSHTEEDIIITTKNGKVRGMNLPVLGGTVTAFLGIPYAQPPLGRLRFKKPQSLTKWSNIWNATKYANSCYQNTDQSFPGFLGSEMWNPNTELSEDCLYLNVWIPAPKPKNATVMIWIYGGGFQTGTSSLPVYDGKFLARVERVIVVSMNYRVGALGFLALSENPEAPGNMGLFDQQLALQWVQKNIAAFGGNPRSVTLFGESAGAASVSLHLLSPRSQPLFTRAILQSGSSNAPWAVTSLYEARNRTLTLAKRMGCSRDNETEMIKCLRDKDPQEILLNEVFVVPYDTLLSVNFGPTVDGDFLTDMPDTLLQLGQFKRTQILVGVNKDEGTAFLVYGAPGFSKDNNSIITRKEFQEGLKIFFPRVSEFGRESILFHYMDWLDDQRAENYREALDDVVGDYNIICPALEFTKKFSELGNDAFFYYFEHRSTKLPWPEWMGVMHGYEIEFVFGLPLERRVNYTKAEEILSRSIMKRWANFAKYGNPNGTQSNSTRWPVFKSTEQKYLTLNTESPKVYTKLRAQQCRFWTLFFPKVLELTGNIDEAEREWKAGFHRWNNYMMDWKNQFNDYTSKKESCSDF

| Compound | IC50 [1] [nM] | other results |
| --- | --- | --- |
| c1ccc(CN2CCC(CCc3ncnc4ccccc34)CC2)cc1 | 340 | – |
| Brc1ccc2c(CCC3CCN(Cc4ccccc4)CC3)noc2c1 | 50 | – |
| Cc1ccc2onc(CCC3CCN(Cc4ccccc4)CC3)c2c1 | 7.8 | – |
| Cc1cc2onc(CCC3CCN(Cc4ccccc4)CC3)c2cc1C | 5.8 | – |
| CC(=O)Nc1ccc2c(CCC3CCN(Cc4ccccc4)CC3)noc2c1 | 2.8 | IC50 [2]: 9000 nM; ED50 [3]: 2.4 mg/kg |
| N#Cc1ccc2c(CCC3CCN(Cc4ccccc4)CC3)noc2c1 | 101 | – |
| O=S(=O)(Nc1ccc2c(CCC3CCN(Cc4ccccc4)CC3)noc2c1)c1ccccc1 | 14 | – |
| O=C(Nc1ccc2c(CCC3CCN(Cc4ccccc4)CC3)noc2c1)c1ccccc1 | – | ED50 [4]: > 100 mg/kg |
| c1ccc(CN2CCC(CCc3noc4cc(N5CCOCC5)ccc34)CC2)cc1 | – | IC50 [2]: 4700 nM |
| COc1cc2c(cc1OC)C(=O)C(CC1CCN(Cc3ccccc3)CC1)C2 (stereo not drawn) [DONEPEZIL] | – | ED50 [5]: 14 mg/kg |
| CNC(=O)Oc1ccc2c(c1)[C@]1(C)CCN(C)[C@@H]1N2C [PHYSOSTIGMINE] | – | IC50 [2]: 73 nM |
